Drawing on patent US20260297081A1, “COMPOUNDS AND METHODS OF TREATING CANCERS” (Cullgen Inc., priority 2023, published 2026), this text covers activity, inhibition and IC50 for six compounds.

Assay type in all cases: cell-based
The target in assay [1] is T1, CDK4 (Homo sapiens, UniProt P11802+Q16531). Briefly: HiBiT detection of HiBiT-tagged CDK4 protein level in MCF7 cells, 16 hours (Table 8). Also on record: expressed in transfected cells; host or cells: MCF7. The note with it: MCF7 cells stably expressing HiBiT tagged target proteins; for activity at 0.01 µM: 10 nM, read-out: % CDK4 Relative Level (10 nM); for activity at 0.1 µM: 100 nM, read-out: % CDK4 Relative Level (100 nM). The procedure:
HiBiT detection system quantitatively measures total amounts of HiBiT-tagged proteins using a luminescent based method. MCF7 cells stably expressing HiBiT tagged target proteins were treated with heterobifunctional compounds at indicated concentrations for 16 hours, then lysed with Nano-Glo HiBiT Lytic detection reagents.
Target sequence in this assay (P11802 whole entry): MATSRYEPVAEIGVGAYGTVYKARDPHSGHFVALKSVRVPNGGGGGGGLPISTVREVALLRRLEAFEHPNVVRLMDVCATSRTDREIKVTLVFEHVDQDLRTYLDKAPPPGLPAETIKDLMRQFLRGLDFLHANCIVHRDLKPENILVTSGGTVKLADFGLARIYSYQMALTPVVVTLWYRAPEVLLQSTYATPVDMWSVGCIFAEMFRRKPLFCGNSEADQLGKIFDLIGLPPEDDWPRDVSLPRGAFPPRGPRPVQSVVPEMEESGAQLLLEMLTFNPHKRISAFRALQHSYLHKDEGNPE
Target sequence in this assay (P24385 whole entry partner): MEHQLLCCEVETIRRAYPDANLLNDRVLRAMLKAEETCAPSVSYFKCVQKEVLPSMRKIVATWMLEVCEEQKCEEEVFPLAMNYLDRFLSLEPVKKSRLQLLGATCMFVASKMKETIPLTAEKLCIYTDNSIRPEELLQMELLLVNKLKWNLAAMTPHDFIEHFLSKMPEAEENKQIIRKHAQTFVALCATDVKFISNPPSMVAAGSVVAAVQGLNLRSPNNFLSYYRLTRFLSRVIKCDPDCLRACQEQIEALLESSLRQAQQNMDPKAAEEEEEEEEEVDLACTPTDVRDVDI
Target sequence in this assay (Q16531 2-1140 limits assumed): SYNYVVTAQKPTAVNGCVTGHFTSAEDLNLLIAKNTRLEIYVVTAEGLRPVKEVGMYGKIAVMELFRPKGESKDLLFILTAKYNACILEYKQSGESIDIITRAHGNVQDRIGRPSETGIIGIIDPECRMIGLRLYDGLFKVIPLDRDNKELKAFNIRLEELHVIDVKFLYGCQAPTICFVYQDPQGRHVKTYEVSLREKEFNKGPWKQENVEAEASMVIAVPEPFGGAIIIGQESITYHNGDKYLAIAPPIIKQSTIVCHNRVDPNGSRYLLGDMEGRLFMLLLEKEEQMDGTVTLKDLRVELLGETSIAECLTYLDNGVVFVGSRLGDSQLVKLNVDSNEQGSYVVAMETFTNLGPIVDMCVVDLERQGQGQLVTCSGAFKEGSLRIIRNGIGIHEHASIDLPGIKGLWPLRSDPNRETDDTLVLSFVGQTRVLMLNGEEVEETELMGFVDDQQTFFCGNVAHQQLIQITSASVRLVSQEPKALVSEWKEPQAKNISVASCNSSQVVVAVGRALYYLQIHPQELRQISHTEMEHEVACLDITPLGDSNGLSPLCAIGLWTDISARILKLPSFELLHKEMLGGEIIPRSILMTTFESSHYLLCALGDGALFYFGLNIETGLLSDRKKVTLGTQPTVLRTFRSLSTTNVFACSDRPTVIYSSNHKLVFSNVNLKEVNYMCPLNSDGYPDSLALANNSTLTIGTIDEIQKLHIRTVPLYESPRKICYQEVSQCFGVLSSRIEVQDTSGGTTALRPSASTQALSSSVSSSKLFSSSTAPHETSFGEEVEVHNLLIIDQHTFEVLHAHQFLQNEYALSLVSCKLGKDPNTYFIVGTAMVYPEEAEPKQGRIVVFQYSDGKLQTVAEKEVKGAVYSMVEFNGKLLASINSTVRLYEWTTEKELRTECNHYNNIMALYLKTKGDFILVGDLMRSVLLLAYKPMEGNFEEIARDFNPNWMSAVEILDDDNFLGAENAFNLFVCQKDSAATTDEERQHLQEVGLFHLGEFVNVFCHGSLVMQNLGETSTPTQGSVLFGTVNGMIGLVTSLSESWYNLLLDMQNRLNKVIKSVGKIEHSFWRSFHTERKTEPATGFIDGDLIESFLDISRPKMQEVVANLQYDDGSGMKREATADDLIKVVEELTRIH
A general note: With HiBiT, luminescence reflects the tagged protein that the partner subunit can reach.

Assay [2] has as its target T1, CDK4. Briefly: CDK4 percentage degradation in Calu-1 cells (Table 6). Details: Cells that express cyclin D1-3 and CDK4/6 proteins were treated with heterobifunctional compounds; endogenous in cells; host or cells: Calu-1. Particulars: 16 hours; for inhibition at 0.04 µM: 40 nM; for inhibition at 0.2 µM: 200 nM. In a few lines:
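Calu-1 cells exposed to heterobifunctional compounds at 40 nM or 200 nM for 16 h. Cyclin D1 and CDK4 levels measured by Western blot of RIPA lysates (BCA-normalised loading), bands quantified by densitometry and expressed as percentage degradation.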
Target sequence in this assay (P11802 2-303 limits assumed): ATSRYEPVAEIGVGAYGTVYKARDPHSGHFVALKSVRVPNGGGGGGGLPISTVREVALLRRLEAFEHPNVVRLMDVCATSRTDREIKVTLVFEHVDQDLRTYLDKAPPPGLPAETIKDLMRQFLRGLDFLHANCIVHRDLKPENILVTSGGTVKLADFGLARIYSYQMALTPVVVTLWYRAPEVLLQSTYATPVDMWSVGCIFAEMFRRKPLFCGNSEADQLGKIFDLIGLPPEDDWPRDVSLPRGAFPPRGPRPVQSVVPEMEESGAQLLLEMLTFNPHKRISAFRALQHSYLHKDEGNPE
Target sequence in this assay (P24385 whole entry partner): as the sequence (P24385 whole entry partner) above
Target sequence in this assay (Q16531 2-1140 limits assumed): as the sequence (Q16531 2-1140 limits assumed) above

The subject of the next assay is MCF7 cells. Briefly: Anti-proliferation (viability) of MCF7 cells (Table 7, FIG. 2B). Particulars: Homo sapiens, MCF7, MCF7 cells, 3-6 days, 10-point serial dilution; read-out: GI IC50 in MCF-7.

A value given as a limit tells only on which side of the number the result lay.

On to `CNc1ccc(C(=O)Nc2ccc(N(C)C)nn2)c(NCCCC(=O)N2CCN(c3ccc(Nc4ncc(F)c(-c5cc(F)c6nc(C)n(C(C)C)c6c5)n4)nc3)CC2)n1` [CPD-649, N-(6-(dimethylamino)pyridazin-3-yl)-2-((4-(4-(6-((5-fluoro-4-(4-fluoro-1-isopropyl-2-methyl-1H-benzo[d]imidazol-6-yl)pyrimidin-2-yl)amino)pyridin-3-yl)piperazin-1-yl)-4-oxobutyl)amino)-6-(methylamino)nicotinamide], for which, at CDK4 [1], the activity at 0.01 µM is above 85% and the activity at 0.1 µM is above 85%.

With `CNc1ccc(C(=O)Nc2ccc(N(C)C)nn2)c(NCCCC(=O)NC2CCC3(CC2)CC(Nc2ncc4ccc(=O)n(C5CCCC5)c4n2)C3)n1` (stereo not shown) [CPD-674, 2-((4-((2-((8-cyclopentyl-7-oxo-7,8-dihydropyrido[2,3-d]pyrimidin-2-yl)amino)spiro[3.5]nonan-7-yl)amino)-4-oxobutyl)amino)-N-(6-(dimethylamino)pyridazin-3-yl)-6-(methylamino)nicotinamide], on CDK4 [1], the activity at 0.01 µM is above 85% and the activity at 0.1 µM was above 85%.

For orientation: inhibition means the relative decrease from the control value, in per cent. Low readings indicate little suppression, high ones strong suppression. For orientation: IC50 means the concentration that inhibits the measured activity by half. Take `CC(=O)c1c(C)c2cnc(Nc3ccc(N4CCN(C5CCN(C(=O)[C@H]6CC[C@H](Nc7nc(NC(C)C)ccc7C(=O)Nc7ccc(N(C)C)nn7)CC6)C5)CC4)cn3)nc2n(C2CCCC2)c1=O` (stereo partly shown) [CPD-399, 2-((−4-(3-(4-(6-((6-acetyl-8-cyclopentyl-5-methyl-7-oxo-7,8-dihydropyrido[2,3-d]pyrimidin-2-yl)amino)pyridin-3-yl)piperazin-1-yl)pyrrolidine-1-carbonyl)cyclohexyl)amino)-N-(6-(dimethylamino)pyridazin-3-yl)-6-(isopropylamino)nicotinamide]: on CDK4 [2], the inhibition at 0.04 µM is below 30% and the inhibition at 0.2 µM was below 30%. In addition, the IC50 in the assay on MCF7 cells was below 50 nM.

Take `CNc1ccc(C(=O)Nc2ccc(N(C)C)nn2)c(NC2CC3(C2)CN(C(=O)C2CC24CCN(c2ccc(Nc5ncc6c(C)c(C(C)=O)c(=O)n(C7CCCC7)c6n5)nc2)CC4)C3)n1` (stereo not shown) [CPD-324, 2-((2-(6-(6-((6-acetyl-8-cyclopentyl-5-methyl-7-oxo-7,8-dihydropyrido[2,3-d]pyrimidin-2-yl)amino)pyridin-3-yl)-6-azaspiro[2.5]octane-1-carbonyl)-2-azaspiro[3.3]heptan-6-yl)amino)-N-(6-(dimethylamino)pyridazin-3-yl)-6-(methylamino)nicotinamide]: on CDK4 [2], the inhibition at 0.04 µM was below 30% and the inhibition at 0.2 µM is below 30%. In addition, in the assay on MCF7 cells, the IC50 is below 50 nM.

At CDK4 [2], `CC(=O)c1c(C)c2cnc(Nc3ccc(N4CCN(C(C)CC(=O)N5CCC(Nc6nc(NC(C)C)ccc6C(=O)Nc6ccc(N(C)C)nn6)CC5)CC4)cn3)nc2n(C2CCCC2)c1=O` (stereo not shown) [CPD-359, 2-((1-(3-(4-(6-((6-acetyl-8-cyclopentyl-5-methyl-7-oxo-7,8-dihydropyrido[2,3-d]pyrimidin-2-yl)amino)pyridin-3-yl)piperazin-1-yl)butanoyl)piperidin-4-yl)amino)-N-(6-(dimethylamino)pyridazin-3-yl)-6-(isopropylamino)nicotinamide] showed an inhibition at 0.04 µM below 30% and an inhibition at 0.2 µM below 30%. Moreover, the IC50 with MCF7 cells was below 50 nM.

As to `CC(=O)c1c(C)c2cnc(Nc3ccc(N4CCN(C(CC(=O)N5CC6(CC(Nc7nc(NC(C)C)ccc7C(=O)Nc7ccc(N(C)C)nn7)C6)C5)C(F)(F)F)CC4)cn3)nc2n(C2CCCC2)c1=O` (stereo not shown) [CPD-367, 2-((2-(3-(4-(6-((6-acetyl-8-cyclopentyl-5-methyl-7-oxo-7,8-dihydropyrido[2,3-d]pyrimidin-2-yl)amino)pyridin-3-yl)piperazin-1-yl)-4,4,4-trifluorobutanoyl)-2-azaspiro[3.3]heptan-6-yl)amino)-N-(6-(dimethylamino)pyridazin-3-yl)-6-(isopropylamino)nicotinamide], on CDK4 [2], the inhibition at 0.04 µM is below 30% and the inhibition at 0.2 µM is below 30%. For the same compound, the IC50 in the assay with MCF7 cells is below 50 nM.
